Measured values: patent US7179842B2, “Method of treating non-insulin dependent diabetes mellitus with phytanic acid derivatives” (priority 2000, dated 2007)
Read-outs that look alike come from different tables or passages of the source.

Columns and labels:
RXR [1] = settings: cited from earlier work
[2] = biological target: all-trans-retinoic acid receptor (RAR); settings: cited from earlier work
GLUT-1 mRNA = assay: Quantitative RT-PCR (TaqMan) mRNA level, GLUT-1; type: cell-based, rat; settings: for GLUT-1 mRNA levels / GLUT-1 mRNA induction: 24 h
Method: (§1) The data is presented as means of 3 independent experiments.
(§2) For the quantification of the expression levels the novel Real Time Quantitative TaqMan™ PCR using the multiplex method was employed. Total RNA was isolated using the RNeasy kit from QIAGEN (Valencia, Calif.). The first strand cDNA was synthesized in a 20 μl reaction from 5 μg total RNA by reverse transcription with the. […] Subsequently the cDNA was diluted to 500 μl. In a 50 μl reaction, 10 μl cDNA was amplified in the 7700 Sequence Detector (PE Biosystems, Foster City, Calif.), using the Universal Master Mix (PE Biosystems, Foster City, Calif.) and the following PCR-primers and TaqMan™-probes at the concentrations of 300 nM and 100 nM, respectively, and PCR-primers and TaqMan™-probes for the reference gene β-actin at concentration of 50 nM.
(§3) The induction of gene expression, and corresponding error bars were calculated from 3 independent experiments using the ΔCT method according to the manufacturer's protocol.

GLUT-2 mRNA = assay: Quantitative RT-PCR (TaqMan) mRNA level, GLUT-2; type: cell-based, rat; settings: 24 h
Method: as §1, §2, §3

glucokinase mRNA = assay: Quantitative RT-PCR (TaqMan) mRNA level, glucokinase; type: cell-based, rat; settings: 100 μM, 24 h
Method: as §1, §2, §3

PEPCK mRNA = assay: Quantitative RT-PCR (TaqMan) mRNA level, PEPCK; type: cell-based, rat
Method: as §1, §2, §3

[3] = adult mice, 0.5% phytol diet for 21 days; cited from earlier work
[4] = cited from earlier work
Rat primary hepatocytes [5] = assay: [3H]-2-deoxy-D-glucose uptake in hepatocytes; type: cell-based; settings: 24 h treatment
Method: Rat primary hepatocytes were cultured for 24 h at 37° C. in media containing phytanic acid 10 μM (□) and 100 μM (▪), palmitic acid 100 μM ( ), DHA 100 μM (∘), and control (▴). Subsequently [3H]-2-deoxy-D-glucose uptake was measured after 15, 30, and 60 min incubation period.
Cells cultured in 24-well plates were treated for 24 h with phytanic acid, palmitic acid, and DHA. Subsequently the medium was removed and cells were washed twice with pre-warmed phosphate buffered saline, pH 7.4 (PBS). 500 μl of pre-warmed glucose reaction mixture (0.01 mM 2-deoxy-D-glucose and 3 μCi/ml [3H]-2-deoxy-D-glucose in PBS) was then added to the cells. The reaction mixture was further incubated at 37° C. for different time intervals. The reaction was terminated by aspirating the reaction mixture and washing the cells twice with ice cold 10 mM 2-deoxy-D-glucose in PBS. Cells were then solubilized with 500 μl of 1% sodium dodecyl sulfate, 400 μl of which was transferred to scintillation vials containing 5 ml Quickszint 1 (Zinsser Analytic, Frankfurt, Germany). Radioactivity was counted in a Tri-Carb 2500 (Packard, Meriden, Conn.) liquid scintillation counter. The remaining lysate was used for protein content determination with the BCA Protein Assay Reagent Kit (Pierce, Rockford, Ill.). Data are expressed as means±SD from 3 independent experiments.

[6] = test system: cytochrome P450/4A1 (Cyp4al) mRNA; assay: Quantitative RT-PCR (TaqMan) mRNA level, Cyp4a1; type: cell-based, rat; settings: 10 μM for 24 h
Method: (§4) The mRNA levels were determined with the TaqMan™ methodology after a 24 h stimulation of the rat primary hepatocytes with 10 μM phytanic acid, palmitic acid, and DHA. mRNA levels were normalized to β-actin expression and expressed relative to untreated cells. The data is presented as means of 3 independent experiments. Error bars were calculated as described in Example 3.
(§5) For the quantification of the expression levels the novel Real Time Quantitative TaqMan™ PCR using the multiplex method was employed. Total RNA was isolated using the RNeasy kit from QIAGEN (Valencia, Calif.). The first strand cDNA was synthesized in a 20 μl reaction from 5 μg total RNA by reverse transcription with the. SuperScriptII™ Reverse Transcriptase Kit (Life Technologies Inc., Coralville Iowa) and 100 ng random hexamers, as previously described (Zimmermann, U., Fluehmann, B., Born, W., Fischer, J., A. & Muff, R. (1997) Coexistence of Novel Amylin-Binding Sites With Calcitonin Receptors in Human Breast Carcinoma Mcf-7 Cells, Journal of Endocrinology. 155, 423–431). Subsequently the cDNA was diluted to 500 μl. […]
as §3

HMG-CoA reductase mRNA = assay: Quantitative RT-PCR (TaqMan) mRNA level, HMG-CoA reductase; type: cell-based, rat; settings: 10 μM for 24 h
Method: as §4, §5, §3

[7] = test system: lipoprotein lipase (LPL) mRNA; assay: Quantitative RT-PCR (TaqMan) mRNA level, LPL; type: cell-based, rat; settings: 10 μM for 24 h
Method: as §4, §5, §3

[8] = test system: low-density lipoprotein receptor (LDLR) mRNA; assay: Quantitative RT-PCR (TaqMan) mRNA level, LDLR; type: cell-based, rat; settings: 10 μM for 24 h
Method: as §4, §5, §3

[9] = test system: tumor necrosis factor α (TNFα) mRNA; assay: Quantitative RT-PCR (TaqMan) mRNA level, TNFα; type: cell-based, rat; settings: 10 μM for 24 h
Method: as §4, §5, §3

[10] = test system: apolipoprotein A1 (ApoA1) mRNA; assay: Quantitative RT-PCR (TaqMan) mRNA level, ApoA1; type: cell-based, rat; settings: 10 μM for 24 h
Method: as §4, §5, §3

[11] = test system: apolipoprotein E (ApoE) mRNA; assay: Quantitative RT-PCR (TaqMan) mRNA level, ApoE; type: cell-based, rat; settings: 10 μM for 24 h
Method: as §4, §5, §3

[12] = test system: liver fatty acid binding protein (LFABP) mRNA; assay: Quantitative RT-PCR (TaqMan) mRNA level, LFABP; type: cell-based, rat; settings: 10 μM for 24 h
Method: as §4, §5, §3

plasma insulin = assay: In vivo study, plasma insulin in rats fed phytanic acid; design: species or system male Wistar rats; settings: 150 and 750 mg phytanic acid/kg feed, day 7, vs control chow
Method: Male Wistar rats were adapted for two days and then fed with the respective substance. The values are means±SD (see Example 4).
To determine the beneficial effect of phytanic acid on plasma insulin levels, a study was performed using male Wistar rats. The animals were adapted for two days and then fed with control chow, 150 mg phytanic acid/kg feed (P-10), and 750 mg phytanic acid/kg feed (P-50), respectively. Blood samples were taken at day 7 and the insulin concentration in the plasma was measured (FIG. 7).

Rat primary hepatocytes [13] = settings: 24 h, 1 mM
RXR [14] = settings: read-out: RXR receptor binding IC50; cited from earlier work
PPARα = biological target: T1, PPARα (Homo sapiens, UniProt Q07869); settings: read-out: Kd-value as PPARα ligand; cited from earlier work
T1 sequence (Q07869 1-468): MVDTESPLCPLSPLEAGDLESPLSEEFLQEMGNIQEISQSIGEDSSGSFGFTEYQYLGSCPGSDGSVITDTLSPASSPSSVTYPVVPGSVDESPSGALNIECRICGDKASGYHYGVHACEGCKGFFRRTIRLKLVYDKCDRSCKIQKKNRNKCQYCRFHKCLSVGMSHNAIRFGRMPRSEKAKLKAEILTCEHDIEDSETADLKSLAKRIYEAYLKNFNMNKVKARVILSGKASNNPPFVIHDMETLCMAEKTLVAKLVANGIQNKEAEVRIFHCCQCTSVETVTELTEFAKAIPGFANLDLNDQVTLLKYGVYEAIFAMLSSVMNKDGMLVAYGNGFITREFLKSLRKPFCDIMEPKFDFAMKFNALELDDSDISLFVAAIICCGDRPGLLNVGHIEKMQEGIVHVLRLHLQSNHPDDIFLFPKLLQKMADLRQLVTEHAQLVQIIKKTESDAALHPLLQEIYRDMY

[15] = concentrations lower than 100 μM

In the case of CC1=C(/C=C/C(C)=C\C=C\C(C)=C\C(=O)O)C(C)(C)CCC1 [9-cis-retinoic acid, reference compound], the EC50 (RXR [1]; read-out: RXR activation EC50) is given as […] and the EC50 ([2]; read-out: RAR activation EC50) is given as 13 nM.

For CC/C=C\C/C=C\C/C=C\C/C=C\C/C=C\C/C=C\CCC(=O)O [DHA, docohexaenoic acid, reference compound], the “GLUT-1 mRNA levels” value (GLUT-1 mRNA; concentrations up to 100 μM) was “did not affect”, the “GLUT-2 mRNA levels” value (GLUT-2 mRNA) was “did not affect” and the “transcription of glucokinase mRNA” value (glucokinase mRNA) was “reduced”. For the same compound, the “transcription of PEPCK mRNA” value (PEPCK mRNA; 100 μM, 24 h) was “reduced”.

With CCCCCCCCCCCCCCCC(=O)O [palmitic acid, reference compound] the “GLUT-1 mRNA induction” value (GLUT-1 mRNA; 100 μM) was 2.4 (1.7–3.3) fold, the “GLUT-1 mRNA levels” value (GLUT-1 mRNA; [15]) was “did not affect” and the “GLUT-2 mRNA levels” value (GLUT-2 mRNA; low concentrations) was “minor induction”. For the same compound, the “transcription of glucokinase mRNA” value (glucokinase mRNA) was “reduced” and the “transcription of PEPCK mRNA” value (PEPCK mRNA; 100 μM, 24 h) was “reduced”.

In the case of C/C(=C\CO)CCC[C@H](C)CCC[C@H](C)CCCC(C)C [phytol], the cholesterol serum levels [3] is listed as “remained unaffected”, the “decrease in triglyceride serum levels” value [3] is listed as 40% and the “intestinal absorption from dietary chlorophyll” value ([4]; rat and man) is listed as “minimal”. For the same compound, the “absorption compared with phytanic acid” value ([4]; rats) was “much less well adsorbed than phytanic acid”.

In the case of CC(C)CCCC(C)CCCC(C)CCCC(C)CC(=O)O (stereo not shown) [phytanic acid], the “2-deoxy-D-glucose uptake vs control, palmitic acid or DHA” value (Rat primary hepatocytes [5]; 100 μM, uptake over 15, 30, 60 min) is reported as “substantial increase”, the 2-deoxy-D-glucose uptake (Rat primary hepatocytes [5]; [15]) is reported as “no measurable effect” and the “GLUT-1 mRNA induction” value (GLUT-1 mRNA; 100 μM) is reported as 2.2 (1.6–2.9) fold. The “GLUT-1 mRNA maximal induction” value (GLUT-1 mRNA; 100 μM, after 6 hours, normalized to β-actin, relative to untreated) was 5.6 (5.1–6.2) fold, the “GLUT-1 mRNA levels” value (GLUT-1 mRNA; [15]) was “did not affect” and the “GLUT-2 mRNA maximal induction” value (GLUT-2 mRNA; 100 μM) was 3.2 (2.7–3.8) fold. For the same compound, the “GLUT-2 mRNA induction” value (GLUT-2 mRNA; 0.01–100 μM) was “at least 2 fold”, the “glucokinase mRNA induction” value (glucokinase mRNA) was 3.0 (2.5–3.4) fold and the PEPCK transcript (PEPCK mRNA; 10 μM for 24 h) was “increase”. The “PEPCK mRNA induction” value (PEPCK mRNA; 100 μM, 24 h) was 2.5 (1.7–3.6) fold, the “PEPCK mRNA maximal induction” value (PEPCK mRNA; 100 μM, after 6 hours) was 4.4 (3.4–5.7) fold and the Cyp4a1 transcript [6] was “increase”. The HMG-CoA reductase transcript (HMG-CoA reductase mRNA) was “increase”, the LPL transcript [7] was “increase” and the LDLR transcript [8] was “increase”. For the same compound, the TNFα transcript [9] was “increase”, the “ApoA1 mRNA” value [10] was “downregulated” and the “ApoE mRNA” value [11] was “downregulated”. The “LFABP mRNA levels” value [12] was “remained unaffected”, the plasma insulin (plasma insulin) was “could reduce the plasma insulin” and the “cells survived compared to untreated” value (Rat primary hepatocytes [13]) was 54±17%. For the same compound, the IC50 (RXR [14]) was 2300 nM, the EC50 (RXR [1]; read-out: RXR transcriptional effects EC50) was 3000 nM and the “activity on retinoid receptors (RXR vs RAR)” value [2] was “restricted to RXR receptors”. For the same compound, the Kd (PPARα) was 10 nM.
